Measurements published in patent US20120142596A1, “AGENT FOR STIMULATING MOBILIZATION OF ENDOTHELIAL PROGENITOR CELLS” (priority 2009, published 2012).

Key:
[1] = tested on: EPCs; experiment: Ability to form tubes in vitro on Matrigel of EPCs cultured from blood after SP; type: cell-based, New Zealand white rabbits; conditions: EPCs from peripheral blood after intravenous SP, 12 hours
Protocol: In order to examine the blood vessel-forming ability of the EPCs that have been isolated and cultured from the blood, the cells were cultured on Matrigel (BD). For this purpose, 200 μl of Matrigel was added to each well of a 96-well plate and incubated at 37° C. for 30 minutes. The cells were added to each well containing Matrigel at a density of 2×10^4 and cultured for 12 hours. When mesenchymal stem cells (MSCs) were cultured in the same manner as described above, colonies were formed as shown in FIG. 4B.

[2] = tested on: endothelial progenitor cells; experiment: EPC CFU in bone marrow aspirate after intra-bone marrow administration; type: in vivo, New Zealand white rabbits; conditions: rabbit, intra-bone marrow injection, bone marrow aspirate 24 hours after injection, 1 week culture; for increase in amount of mobilized EPCs (CFU) compared to negative control group: SP 4 nmole/kg, G-CSF 2.5 μg/kg
Protocol: (§1) Ketamine hydrochloride (50 mg/ml Yuhan, Korea) and Rompun (xylazine hydrochloride, 23.32 mg/ml Bayer Korea) were mixed at a ratio of 2:1, and then 900 μl of the mixture (600 μl of ketamine hydrochloride and 300 μl of Rompun) was injected intramuscularly into New Zealand white rabbits (male, 2.5 kg, n=4). 5 minutes after the intramuscular injection, the same anesthetic (200 μl of ketamine hydrochloride and 100 μl of Rompun) was injected intravenously into the ear of each rabbit to completely anesthetize the rabbits.
SP (Sigma, 4 nmole/kg in saline) was injected into the right iliac crest of one rabbit group at an injection volume of 0.1 ml using a 18G spinal needle.
As a negative control, 1×PBS was injected into the left iliac crest of another rabbit group at an injection volume of 0.1 ml using a 18G spinal needle. As a positive control, G-CSF (CJ Pharma Leukokine Inj. 150; 2.5 μg/kg) was injected into the right iliac crest at an injection volume of 0.1 ml using a 18G spinal needle.
24 hours after the injection, 4 ml of a bone marrow aspirate was isolated from the bone marrow, two-fold diluted in PBS, and then carefully placed on Ficoll (GE Health care) contained in a tube (Ficoll: bone marrow aspirate=1:1 v/v). Then, the cell dilution was centrifuged at 2200 rpm for 25 minutes. As a result, a red blood cell layer, a ficoll layer, a mononuclear cell layer and a plasma layer, from bottom to top, were formed. After removing the plasma layer, only the mononuclear cell layer was separated and transferred into a new tube. 30 ml of PBS was added to the obtained mononuclear cell layer and centrifuged again (washing step).
The isolated cells were seeded on a 100-mm dish (Falcon) coated with fibronectin and were cultured in EGM-2 (Endothelial growth medium-2, Lonza) for 1 week (5% CO2 and 37° C.). After the culture, the CFU of the cells was measured and compared with those of the group injected with PBS and the group injected with the positive control G-CSF.

[3] = tested on: endothelial progenitor cells; experiment: Comparison of EPC colony formation in peripheral blood after intra-bone marrow administration of SP and G-CSF; type: in vivo, New Zealand white rabbits; conditions: rabbit, intra-bone marrow administration, 1, 2 and 3 days, compared to G-CSF
Protocol: (§2) According to the same method described in Example 2-(2), 0.1 ml of SP was administered to one rabbit group (New Zealand white rabbits, male, 2.5 kg, n=3), and 0.1 ml of G-CSF (CJ Pharma, Leukokine inj. 150; 2.5 μg/kg) as a positive control was administered to another rabbit group (New Zealand white rabbits, male, 2.5 kg, n=3). 1, 2 and 3 days after the administration, 5-15 ml of peripheral blood was isolated from each animal group. The isolated blood was two-fold diluted in PBS and carefully placed on Ficoll contained in a tube (Ficoll: peripheral blood=1:1 v/v). Then, the cell dilution was centrifuged at 2200 rpm for 25 minutes. The uppermost plasma layer was removed, and only the mononuclear cell layer was separated from the tube and transferred into a new tube. 30 ml of PBS was added to the obtained mononuclear cell layer and centrifuged at 1500 rpm for 5 minutes (washing step). The cells were suspended in EGM-2 (endothelial growth medium-2, Lonza), and the suspended cells were seeded on a 100-mm dish (Falcon) coated with fibronectin and were cultured in EGM-2 (endothelial growth medium-2, Lonza) for 2 weeks (5% CO2 and 37° C.). After the culture, the produced colonies were stained with toluidine blue and counted.

[4] = tested on: EPCs; experiment: Immunohistochemical staining of cells cultured from peripheral blood with EPC markers CD34 and UEA; type: cell-based, New Zealand white rabbits; conditions: cells cultured from peripheral blood after intravenous SP, fluorescence microscopy
Protocol: In order to examine the presence of EPCs in peripheral blood using the EPC markers CD34 and UEA, EPCs (2×10^4 cells/well) that have been isolated and cultured from the above blood were incubated on cover slips for CD34 test and UEA test, respectively. After incubation in a 5% CO2 incubator at 37° C. for 24 hours, the cells were washed with PBS. Then, the cells were fixed with 3.7% paraformaldehyde and washed again with PBS.
The washed cells were blocked with 20% goat serum and treated with anti-CD 34 antibody at room temperature for 1 hour. Then, the cells were washed again with PBS and treated with FITC-conjugated anti-mouse IgG at room temperature for 1 hour. To remove excess of antibodies, the cells were washed with PBS, counterstained with DAPI, and then mounted.
The washed cells were blocked with 20% goat serum and treated with UEA-biotin at room temperature for 1 hour. Then, the cells were washed again with PBS and treated with streptavidin-FITC at room temperature for 1 hour. The cells were washed with PBS, counterstained with DAPI, and then mounted.
For negative control in immune fluorescence staining, cultured cells were treated with only secondary antibody, and the expression thereof was observed (FIG. 2C).

[5] = tested on: endothelial progenitor cells; experiment: EPC mobilization to peripheral blood after intravenous administration (EPC colony count); type: in vivo, New Zealand white rabbits; conditions: rabbit, 5 nmole/kg i.v. twice (0 and 24 h), blood 3 days after first injection, 2 weeks culture, vs PBS control
Protocol: as §1, with “n=3). 10” for “n=4). 5”, “ear vein” for “ear”, “rabbits. Then, 5 nmole/kg of SP was dissolved in physiological saline solution, and 1 ml of the solution was administered slowly into the ear vein of one rabbit group. As a control, 1 ml of 1×PBS was administered into the ear vein of another rabbit group. 24 hours after the administration, the same amount of each of SP and 1×PBS was injected once more.” for “rabbits.”
3 days after the first injection, peripheral blood was collected from the ear blood vessels of the rabbits, and 10 ml of the collected blood was two-fold diluted in PBS, and then carefully placed on Ficoll contained in a tube (Ficoll: peripheral blood=1:1 v/v). Next, the blood dilution was centrifuged at 2200 rpm for 25 minutes. As a result, a red blood cell (RBC) layer, a ficoll layer, a mononuclear cell layer and a plasma layer, from bottom to top, were formed. […]

[6] = tested on: inflammatory cells (neutrophils, eosinophils and monocytes); experiment: Complete blood cell count of peripheral blood after intra-bone marrow administration; type: in vivo, New Zealand white rabbits; conditions: rabbit, intra-bone marrow administration, 1, 2 and 3 days
[7] = tested on: endothelial progenitor cells; experiment: Comparison of EPC colony formation in peripheral blood after intravenous administration of SP and G-CSF; type: in vivo, New Zealand white rabbits; conditions: rabbit
Protocol: as §2, with “1-(1),” for “2-(2),”

[8] = tested on: inflammatory cells (neutrophils and monocytes); experiment: Complete blood cell count of peripheral blood after intravenous administration; type: in vivo, New Zealand white rabbits; conditions: rabbit, intravenous administration, 1, 2 and 3 days, vs PBS control
Protocol: 1 ml of each of the peripheral bloods obtained 1, 2 and 3 days after intravenous administration of SP and G-CSF was placed in an EDTA-containing vial and mixed well to prevent clotting. In the experiment for isolating EPCs from blood cells, the complete blood cell counting of each blood was performed by Royal ARC (Korea) under the same conditions for each blood.

**Q.** For Substance-P [SP], which “ability to form tubes in vitro” value [1] is on record?
**A.** had the ability to form blood vessels

**Q.** What about the “increase in amount of mobilized EPCs (CFU) compared to group administered with positive control G-CSF” value [2] of the same molecule?
**A.** about 3 fold

**Q.** And the “increase in amount of mobilized EPCs (CFU) compared to negative control group” value [2]?
**A.** 10-12 fold

**Q.** And the “effect of stimulating EPC mobilization (EPC colonies in peripheral blood)” value [3]?
**A.** excellent effect of stimulating EPC mobilization compared to G-CSF

**Q.** What about the “presence of EPCs in peripheral blood by EPC markers CD34 and UEA” value [4] of the same molecule?
**A.** contained a large amount of EPCs

**Q.** What about the “amount of EPCs in peripheral blood (colonies)” value [5] of the same molecule?
**A.** significantly increased

**Q.** What about the “inflammatory cells (neutrophils, eosinophils and monocytes) in peripheral blood” value [6] of the same molecule?
**A.** without causing side effects such as inflammation

**Q.** And the “amount of EPCs in peripheral blood over 1, 2 and 3 days” value ([7]; days 1-3)?
**A.** continuously increased

B1: G-CSF: positive control, CJ Pharma Leukokine Inj. 150; known EPC mobilization factor (protein, UniProt P09919 31-207, looked up)
Granulocyte …: TPLGPASSLPQSFLLKCLEQVRKIQGDGAALQEKLVSECATYKLCHPEELVLLGHSLGIPWAPLSSCPSQALQLAGCLSQLHSGLFLYQGLLQALEGISPELGPTLDTLQLDVADFATTIWQQMEELGMAPALQPTQGAMPAFASAFQRRAGGVLVASHLQSFLEVSYRVLRHLAQP
**Q.** For B1, which “increase in amount of mobilized EPCs (CFU) compared to negative control group” value [2] is on record?
**A.** about 4 fold

**Q.** What about the “inflammatory cells (neutrophils and monocytes) in peripheral blood” value [8] of the same molecule?
**A.** significantly increased

**Q.** What about the “inflammatory cells (neutrophils, eosinophils and monocytes) in peripheral blood” value [6] of the same molecule?
**A.** significantly increased

**Q.** And the “EPCs in peripheral blood after the second day” value ([7]; after the second day)?
**A.** no EPCs were found

**Q.** What about the “EPCs in peripheral blood at the first day” value ([7]; day 1) of the same molecule?
**A.** temporarily increased
